Experiment [1] deals with BaF3 cells transformed with the oncogenic fusion protein NPM/ALK. Briefly: Tritiated thymidine uptake cell proliferation assay, BaF3 NPM/ALK. The format is cell-based. The settings on record: for IC50: BaF3 NPM/ALK cells, 72 h, 3H-thymidine uptake, read-out: NPM/ALK WT IC50; for Selectivity Index (WT): parental BaF3 versus BaF3 NPM/ALK WT. As to the method: (§1) Tritiated Thymidine Uptake Cell Proliferation Assay
(§2) The parent untransformed BaF3 cells and ALK-negative cells are used as controls. Cells are seeded in U-bottomed 96-well plates at 10 000 cells/well in a volume of 100 μL in supplemented medium. In the case of the parent untransformed BaF3 cells, the medium is supplemented with IL-3. Serial dilutions of inhibitors are added to the appropriate wells and volumes adjusted to 200 μL. Controls were treated with the equivalent volume of vehicle, DMSO, alone. Plates are incubated at 37° C. for 72 h. ^3[H]-thymidine (1 μCiCi/well) is added for the last 8 h of incubation.

Experiment [2] concerns parental untransformed BaF3 cells. Briefly: Tritiated thymidine uptake cell proliferation assay, parental BaF3. The format is cell-based. The settings on record: Mus musculus. Here is the method:
as §1
as §2, with “incubation. Cells are harvested on to paper filters and ^3[H]-thymidine incorporation is measured using a β scintillation counter (1430 MicroBeta, Wallac, Turku, Finland). The 50% inhibitory concentration (IC50) is defined as the concentration of inhibitor, expressed in micromolar, that give a 50% decrease in ^3[H]-thymidine uptake compared with controls.” for “incubation.”

The target of experiment [3] is recombinant wild-type ALK kinase (rALK) (Homo sapiens (Human), UniProt Q9UM73). Briefly: ELISA-based in vitro kinase assay, wild-type ALK. The format is biochemical. The following applies: 0.3 mM ATP, read-out: ALK WT IC50.
Chain of recombinant wild-type ALK kinase (rALK) (Q9UM73 19-1620): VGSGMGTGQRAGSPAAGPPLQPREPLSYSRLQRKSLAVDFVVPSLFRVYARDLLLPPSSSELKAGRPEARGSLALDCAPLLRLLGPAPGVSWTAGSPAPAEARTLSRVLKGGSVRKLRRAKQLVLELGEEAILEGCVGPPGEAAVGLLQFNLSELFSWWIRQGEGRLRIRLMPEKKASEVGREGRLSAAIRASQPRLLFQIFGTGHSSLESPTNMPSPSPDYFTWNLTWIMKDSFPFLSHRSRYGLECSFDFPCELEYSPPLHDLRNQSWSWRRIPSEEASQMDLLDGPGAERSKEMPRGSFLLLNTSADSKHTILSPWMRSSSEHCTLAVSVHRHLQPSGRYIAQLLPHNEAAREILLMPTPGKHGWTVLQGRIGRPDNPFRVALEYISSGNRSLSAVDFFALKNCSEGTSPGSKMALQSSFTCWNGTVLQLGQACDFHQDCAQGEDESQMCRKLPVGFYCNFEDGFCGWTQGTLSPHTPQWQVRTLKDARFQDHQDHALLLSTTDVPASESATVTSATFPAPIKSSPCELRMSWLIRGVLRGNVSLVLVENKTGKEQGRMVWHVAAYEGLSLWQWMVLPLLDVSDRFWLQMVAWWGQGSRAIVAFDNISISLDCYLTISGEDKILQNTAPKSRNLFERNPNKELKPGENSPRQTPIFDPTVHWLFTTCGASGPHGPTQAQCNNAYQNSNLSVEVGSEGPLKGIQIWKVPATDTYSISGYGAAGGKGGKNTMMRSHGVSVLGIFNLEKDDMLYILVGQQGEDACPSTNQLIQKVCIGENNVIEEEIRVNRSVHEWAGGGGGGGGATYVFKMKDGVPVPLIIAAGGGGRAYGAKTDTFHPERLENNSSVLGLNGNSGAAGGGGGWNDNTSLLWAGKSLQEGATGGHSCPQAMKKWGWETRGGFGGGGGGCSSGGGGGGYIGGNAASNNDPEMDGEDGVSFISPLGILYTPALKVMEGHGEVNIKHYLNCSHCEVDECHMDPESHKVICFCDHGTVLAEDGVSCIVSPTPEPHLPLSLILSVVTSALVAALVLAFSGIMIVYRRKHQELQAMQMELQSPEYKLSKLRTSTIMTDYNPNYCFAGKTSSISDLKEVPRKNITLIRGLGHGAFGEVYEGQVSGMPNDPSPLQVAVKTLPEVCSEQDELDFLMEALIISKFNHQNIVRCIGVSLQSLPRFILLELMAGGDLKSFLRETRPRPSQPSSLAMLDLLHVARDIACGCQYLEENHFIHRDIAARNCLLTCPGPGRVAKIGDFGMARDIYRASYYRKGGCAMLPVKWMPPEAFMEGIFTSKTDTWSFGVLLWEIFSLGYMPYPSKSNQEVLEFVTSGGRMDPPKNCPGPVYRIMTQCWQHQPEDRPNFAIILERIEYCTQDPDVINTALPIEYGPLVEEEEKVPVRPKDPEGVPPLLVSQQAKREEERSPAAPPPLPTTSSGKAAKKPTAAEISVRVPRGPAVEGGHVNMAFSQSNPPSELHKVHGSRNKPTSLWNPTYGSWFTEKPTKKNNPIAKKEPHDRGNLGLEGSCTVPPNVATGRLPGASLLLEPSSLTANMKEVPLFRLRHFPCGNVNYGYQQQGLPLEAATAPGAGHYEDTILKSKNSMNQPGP
Experimental: ELISA-Based in vitro Kinase Assay
GST-tagged recombinant wild-type or L1196M mutated ALK kinase (rALK) was expressed in Sf9 insect cells using the pBacPAK baculovirus vector system (Clontech) and purified using Glutathione Sepharose 4B affinity beads (GE Healthcare). Recombinant 3C protease was used to remove the GST tag. Purified ALK was used to screen inhibitors in the ELISA-based kinase assay, as follows: Nunc-Immuno 96-well plates were incubated overnight at 30° C. with coating solution containing 2 μg of a specific ALK peptide substrate ([sequence]) in PBS. Wells were then washed with 200 μL of wash buffer (PBS-Tween 0.05%) and incubated with 4% BSA in PBS for at least 2 h at 30° C. The kinase reaction was performed in the presence of 50 mM Tris pH 7.5, 5 mM MnCl2, 5 mM MgCl2, 0.3 mM ATP and purified rALK in a total volume of 100 μL/well at 30° C. for 15 min. For inhibitor testing the reaction mix was preincubated with inhibitor or vehicle for 10 min at room temperature before transferring to the ELISA plate. After the reaction, the wells were washed 5 times with 200 uL of wash buffer. Phosphorylated peptide was detected using 100 μL/well of a mouse monoclonal anti-phosphotyrosine antibody (clone 4G10 UpstateBiotech Ltd) diluted 1:2000 in PBS+4% BSA. After 30 min incubation at room temperature the antibody was removed and wells were washed as described above. 100 μL of a secondary antibody (anti-mouse IgG, Horseradish Peroxidase linked whole antibody, Amersham Pharmacia Biotech) diluted 1:1000 in PBS+4% BSA was added to each well and the plate was incubated again for 30 min at room temperature before washing as above. The plate was developed using 100 μL/well TMB Substrate Solution (Pierce) and the reaction was stopped by adding an equal volume of 1M H2SO4. Finally, the absorbance was read at 450 nm using an ELISA plate reader (Bio-Rad).
The mark [4] stands for this setting: parental BaF3 cells (IL-3), 72 h, 3H-thymidine uptake, read-out: Parental IC50.

Read-outs that look alike come from different tables or passages of the source.

With `COc1ccc(C#Cc2cc(-c3csc(NC(=O)c4ccc(CN5CCN(C)CC5)cc4)n3)ccc2C)cc1` [Example 6, N-(4-(3-((4-methoxyphenyl)ethynyl)-4-methylphenyl)thiazol-2-yl)-4-((4-methylpiperazin-1-yl)methyl)benzamide], the IC50 in experiment [1] is 2.1 µM; in experiment [2] (setting [4]), 6.6 µM; in experiment [3], above 100 µM. In experiment [1], the “Selectivity Index (WT)” value is recorded as 3.

`Cc1ccc(-c2csc(NC(=O)c3ccc(CN4CCN(C)CC4)cc3)n2)cc1C#Cc1ccc(F)cc1` [Example 9, N-(4-(3-((4-fluorophenyl)ethynyl)-4-methylphenyl)thiazol-2-yl)-4-((4-methylpiperazin-1-yl)methyl)benzamide]: the IC50 in experiment [1] is 2.3 µM; in experiment [2] (setting [4]) it was 4 µM; in experiment [3], above 100 µM. For the same molecule, in experiment [1], the “Selectivity Index (WT)” value was 2.

As for `CN1CCN(Cc2ccc(C(=O)Nc3nc(-c4cccc(C#Cc5ccc(F)cc5)c4)cs3)cc2)CC1` [Example 32, N-(4-(3-((4-fluorophenyl)ethynyl)phenyl)thiazol-2-yl)-4-((4-methylpiperazin-1-yl)methyl)benzamide], the IC50 in experiment [2] (BaF3, read-out: Parental IC50) turned out to be 2.4 µM.

Consider `CN1CCN(Cc2ccc(C(=O)Nc3nc(-c4cccc(C#Cc5cc(C(F)(F)F)cc(C(F)(F)F)c5)c4)cs3)cc2)CC1` [Example 33, N-(4-(3-((3,5-bis(trifluoromethyl)phenyl)ethynyl)phenyl)thiazol-2-yl)-4-((4-methylpiperazin-1-yl)methyl)benzamide], for which the IC50 in experiment [2] (BaF3, read-out: Parental IC50) worked out at 7.1 µM.

For the molecule `CN1CCN(C(=O)c2ccc(-c3ccc(C(=O)Nc4nc(-c5cccc(C#Cc6cc(C(F)(F)F)cc(C(F)(F)F)c6)c5)cs4)o3)cc2)CC1` [Example 34, N-(4-(3-((3,5-bis(trifluoromethyl)phenyl)ethynyl)phenyl)thiazol-2-yl)-5-(4-(4-methylpiperazine-1-carbonyl)phenyl)furan-2-carboxamide], the IC50 in experiment [1] is 1.9 µM; in experiment [2] (setting [4]), 4 µM; in experiment [3] it was above 100 µM. Also, in experiment [1], the “Selectivity Index (WT)” value is on record as 2.

For `CC(C)[Si](C#Cc1ccc(-c2csc(NC(=O)c3ccc(CN4CCN(C)CC4)cc3)n2)cc1)(C(C)C)C(C)C` [Example 35, 4-((4-methylpiperazin-1-yl)methyl)-N-(4-(4-((triisopropylsilyl)ethynyl)phenyl)thiazol-2-yl)benzamide], the IC50 in experiment [2] (BaF3, read-out: Parental IC50) was 7.3 µM.

On to `CN1CCN(Cc2ccc(C(=O)Nc3nc(-c4ccc(C#Cc5cc(C(F)(F)F)cc(C(F)(F)F)c5)cc4)cs3)cc2)CC1` [Example 36, N-(4-(4-((3,5-bis(trifluoromethyl)phenyl)ethynyl)phenyl)thiazol-2-yl)-4-((4-methylpiperazin-1-yl)methyl)benzamide], for which the IC50 in experiment [2] (BaF3, read-out: Parental IC50) turned out to be 6.9 µM.

As to `CN1CCN(Cc2ccc(C(=O)Nc3nc(-c4ccc(C#C[Si](C)(C)C(C)(C)C)cc4)cs3)cc2)CC1` [Example 37, N-(4-(4-((tert-butyldimethylsilyl)ethynyl)phenyl)thiazol-2-yl)-4-((4-methylpiperazin-1-yl)methyl)benzamide], the IC50 in experiment [2] (BaF3, read-out: Parental IC50) is 2.4 µM.

As to `CC(C)[Si](C#Cc1cccc(-c2csc(NC(=O)c3ccc(CN4CCOCC4)cc3)n2)c1)(C(C)C)C(C)C` [Example 38, 4-(morpholinomethyl)-N-(4-(3-((triisopropylsilyl)ethynyl)phenyl)thiazol-2-yl)benzamide], in experiment [2] (BaF3, read-out: Parental IC50), the IC50 was above 50 µM.

Turning to `O=C(Nc1nc(-c2cccc(C#Cc3cc(C(F)(F)F)cc(C(F)(F)F)c3)c2)cs1)c1ccc(CN2CCOCC2)cc1` [Example 39, N-(4-(3-((3,5-bis(trifluoromethyl)phenyl)ethynyl)phenyl)thiazol-2-yl)-4-(morpholinomethyl)benzamide], the IC50 was 9 µM in experiment [1], 33 µM in experiment [2] (setting [4]) and above 100 µM in experiment [3]. In experiment [1], the “Selectivity Index (WT)” value worked out at 4.

For `CC(C)(C)[Si](C)(C)C#Cc1cccc(-c2csc(NC(=O)c3ccc(CN4CCOCC4)cc3)n2)c1` [Example 40, N-(4-(3-((tert-butyldimethylsilyl)ethynyl)phenyl)thiazol-2-yl)-4-(morpholinomethyl)benzamide], the IC50 in experiment [2] (BaF3, read-out: Parental IC50) came out at 18 µM.

Turning to `CC(C)(C)[Si](C#Cc1cccc(-c2csc(NC(=O)c3ccc(CN4CCOCC4)cc3)n2)c1)(c1ccccc1)c1ccccc1` [Example 41, N-(4-(3-((tert-butyldiphenylsilyl)ethynyl)phenyl)thiazol-2-yl)-4-(morpholinomethyl)benzamide], in experiment [2] (BaF3, read-out: Parental IC50), the IC50 was above 50 µM.

As for `CN1CCN(Cc2ccc(C(=O)Nc3nc(-c4cccc(C#Cc5ccccc5OC(F)(F)F)c4)cs3)cc2)CC1` [Example 42, 4-((4-methylpiperazin-1-yl)methyl)-N-(4-(3-((2-(trifluoromethoxy)phenyl)ethynyl)phenyl)thiazol-2-yl)benzamide], the IC50 in experiment [2] (BaF3, read-out: Parental IC50) was determined as 2.6 µM.

On to `CN1CCN(C(=O)c2ccc(-c3ccc(C(=O)Nc4nc(-c5cccc(C#Cc6ccccc6OC(F)(F)F)c5)cs4)o3)cc2)CC1` [Example 43, 5-(4-(4-methylpiperazine-1-carbonyl)phenyl)-N-(4-(3-((2-(trifluoromethoxy)phenyl)ethynyl)phenyl)thiazol-2-yl)furan-2-carboxamide], for which the IC50 in experiment [1] was 4.9 µM; in experiment [2] (setting [4]), 4.5 µM; in experiment [3], above 100 µM. Also, the “Selectivity Index (WT)” value in experiment [1] stood at 1.

As to `CC(C)[Si](C#Cc1cccc(-c2csc(NC(=O)c3ccc(CNCCN(C)C)cc3)n2)c1)(C(C)C)C(C)C` [Example 44, 4-(((2-(dimethylamino)ethyl)amino)methyl)-N-(4-(3-((triisopropylsilyl)ethynyl)phenyl)thiazol-2-yl)benzamide], the values for the IC50 in experiment [1], in experiment [2] (setting [4]) and in experiment [3] were 5.1 µM, 7.8 µM and above 100 µM, respectively.

Turning to `CC(C)[Si](C#Cc1cccc(-c2csc(NC(=O)c3ccc(Cn4cnnn4)cc3)n2)c1)(C(C)C)C(C)C` [Example 45], in experiment [2] (BaF3, read-out: Parental IC50), the IC50 stood at 8 µM.

Consider `CC(C)[Si](C#Cc1cccc(-c2csc(NC(=O)c3ccc(Cn4ccnc4)cc3)n2)c1)(C(C)C)C(C)C` [Example 46, 4-((1H-imidazol-1-yl)methyl)-N-(4-(3-((triisopropylsilyl)ethynyl)phenyl)thiazol-2-yl)benzamide], for which the IC50 in experiment [2] (BaF3, read-out: Parental IC50) came out at 11 µM.

On to `CC(C)OC(=O)CNCc1ccc(C(=O)Nc2nc(-c3cccc(C#C[Si](C(C)C)(C(C)C)C(C)C)c3)cs2)cc1` [Example 47, isopropyl 2-((4-((4-(3-((triisopropylsilyl)ethynyl)phenyl)thiazol-2-yl)carbamoyl)benzyl)amino)acetate], for which the IC50 in experiment [2] (BaF3, read-out: Parental IC50) is above 25 µM.

Regarding `CC(C)[Si](C#Cc1cccc(-c2csc(NC(=O)c3ccc(CN4CCN(C)CC4)cc3)n2)c1)(C(C)C)C(C)C` [Example 48, 4-((4-methylpiperazin-1-yl)methyl)-N-(4-(3-((triisopropylsilyl)ethynyl)phenyl)thiazol-2-yl)benzamide], the IC50 in experiment [2] (BaF3, read-out: Parental IC50) was determined as 13 µM.

Turning to `C#Cc1cccc(-c2csc(NC(=O)c3ccc(CN4CCN(C)CC4)cc3)n2)c1` [Example 49, N-(4-(3-ethynylphenyl)thiazol-2-yl)-4-((4-methylpiperazin-1-yl)methyl)benzamide], the IC50 in experiment [2] (BaF3, read-out: Parental IC50) was 4 µM.

`C#CCN1CCN(Cc2ccc(C(=O)Nc3nc(-c4cccc(C#C[Si](C(C)C)(C(C)C)C(C)C)c4)cs3)cc2)CC1` [Example 50, 4-((4-(prop-2-yn-1-yl)piperazin-1-yl)methyl)-N-(4-(3-((triisopropylsilyl)ethynyl)phenyl)thiazol-2-yl)benzamide]: the IC50 in experiment [2] (BaF3, read-out: Parental IC50) was above 50 µM.

The values are drawn from patent US9708279B2, “2-acylaminothiazoles for the treatment of cancer” (UNIVERSITA′ DEGLI STUDI DI MILANO-BICOCCA, priority 2013, dated 2017).
